Laboratory results taken from ChEMBL document CHEMBL1201862, “PubChem BioAssay data set” (2004).
Activity calls are given as the source filed them.

Key:
[1] = target: Glucose-6-phosphate 1-dehydrogenase (Homo sapiens, UniProt P11413); test: human G6PD enzyme inhibitors, dose response, selectivity assay for P. falciparum G6PD inhibitor project, biochemical, fluorescence (AID 504792); type: functional
[2] = target: T1, Alkaline phosphatase, tissue-nonspecific isozyme (Homo sapiens, UniProt P05186); test: human TNAP enzyme inhibitors, SAR follow-up, biochemical, luminescent, dose response (AID 1056)
T1 sequence (P05186 whole entry): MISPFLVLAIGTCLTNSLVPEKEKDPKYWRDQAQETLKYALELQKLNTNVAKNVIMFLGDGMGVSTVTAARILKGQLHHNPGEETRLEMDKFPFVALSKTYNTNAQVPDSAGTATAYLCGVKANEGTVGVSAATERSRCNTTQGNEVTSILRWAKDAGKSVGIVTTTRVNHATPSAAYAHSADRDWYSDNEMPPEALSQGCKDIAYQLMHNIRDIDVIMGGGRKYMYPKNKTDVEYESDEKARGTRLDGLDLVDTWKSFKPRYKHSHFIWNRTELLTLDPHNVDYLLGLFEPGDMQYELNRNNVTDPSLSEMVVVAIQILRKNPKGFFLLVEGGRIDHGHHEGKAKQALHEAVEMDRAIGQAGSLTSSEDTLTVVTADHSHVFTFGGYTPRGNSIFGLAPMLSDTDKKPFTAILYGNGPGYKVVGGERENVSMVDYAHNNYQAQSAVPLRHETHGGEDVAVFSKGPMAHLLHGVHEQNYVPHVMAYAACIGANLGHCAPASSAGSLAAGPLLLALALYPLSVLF

[3] = target: Glyceraldehyde-3-phosphate dehydrogenase (Homo sapiens, UniProt P04406)
Chain of Glyceraldehyde-3-phosphate dehydrogenase (P04406 whole entry): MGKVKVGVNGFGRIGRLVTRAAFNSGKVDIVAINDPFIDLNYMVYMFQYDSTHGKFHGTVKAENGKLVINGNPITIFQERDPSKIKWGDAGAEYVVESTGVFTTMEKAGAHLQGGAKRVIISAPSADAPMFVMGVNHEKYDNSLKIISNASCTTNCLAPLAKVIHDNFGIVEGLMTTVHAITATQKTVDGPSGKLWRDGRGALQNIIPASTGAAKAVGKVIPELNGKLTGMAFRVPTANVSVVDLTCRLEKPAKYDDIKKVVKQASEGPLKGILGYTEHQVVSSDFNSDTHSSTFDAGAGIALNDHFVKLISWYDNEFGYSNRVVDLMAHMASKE

HEK293 = test: inhibitors of LMP1-driven NF-kB reporter, dose response, cell-based, HEK293, luciferase, cherry-pick (AID 588343); type: functional; conditions: Homo sapiens
[4] = target: T2, Heat shock factor protein 1 (Mus musculus, UniProt P38532); test: inhibition of MG132-induced HSE-luciferase signal, confirmation, cell-based, NIH3T3, luminescence, dose retest (AID 2382); type: functional;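 note: NIH3T3 fibroblasts with HSF1-driven luciferase reporter stressed by proteasome inhibitor MG132; luminescence from HSF1-driven luciferase expression after 8 hours of MG132 stress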
T2 sequence (P38532 whole entry): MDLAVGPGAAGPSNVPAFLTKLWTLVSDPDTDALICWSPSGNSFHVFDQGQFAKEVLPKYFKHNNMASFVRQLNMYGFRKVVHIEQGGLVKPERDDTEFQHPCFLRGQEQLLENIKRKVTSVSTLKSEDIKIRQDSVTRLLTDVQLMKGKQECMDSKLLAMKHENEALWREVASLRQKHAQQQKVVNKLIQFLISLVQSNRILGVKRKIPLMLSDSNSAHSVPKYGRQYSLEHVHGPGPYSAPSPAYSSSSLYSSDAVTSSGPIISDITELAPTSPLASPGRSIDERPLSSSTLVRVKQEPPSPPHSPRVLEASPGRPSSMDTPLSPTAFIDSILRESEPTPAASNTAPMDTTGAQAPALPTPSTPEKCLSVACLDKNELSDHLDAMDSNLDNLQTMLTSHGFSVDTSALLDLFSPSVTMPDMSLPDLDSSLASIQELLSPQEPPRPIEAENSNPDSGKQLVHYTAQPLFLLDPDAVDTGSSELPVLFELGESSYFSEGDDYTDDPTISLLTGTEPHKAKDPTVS

[5] = target: T3, Endoribonuclease toxin MazF (Escherichia coli K-12, UniProt P0AE70); test: fluorescent RNA oligo signal without MazF, dose response, counter-screen for MazEF activator project, biochemical, fluorescence, single-stranded RNase substrate (AID 588502); type: functional
T3 sequence (P0AE70 whole entry): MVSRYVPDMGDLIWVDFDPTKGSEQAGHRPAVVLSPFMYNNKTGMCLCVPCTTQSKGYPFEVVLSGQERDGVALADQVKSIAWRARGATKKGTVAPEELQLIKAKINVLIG

[6] = target: T3, Endoribonuclease toxin MazF; test: MazF toxin RNase activators, dose response, biochemical, fluorescence, single-stranded RNA substrate, uHTS hits (AID 588481); type: functional
[7] = target: T4, Rac GTPase-activating protein 1 (Homo sapiens, UniProt Q9H0H5); test: MgcRacGAP GTPase-activating activity inhibitors, confirmation, biochemical, ADP Hunter fluorescence, primary and confirmatory (AID 624330); type: functional
T4 sequence (Q9H0H5 whole entry): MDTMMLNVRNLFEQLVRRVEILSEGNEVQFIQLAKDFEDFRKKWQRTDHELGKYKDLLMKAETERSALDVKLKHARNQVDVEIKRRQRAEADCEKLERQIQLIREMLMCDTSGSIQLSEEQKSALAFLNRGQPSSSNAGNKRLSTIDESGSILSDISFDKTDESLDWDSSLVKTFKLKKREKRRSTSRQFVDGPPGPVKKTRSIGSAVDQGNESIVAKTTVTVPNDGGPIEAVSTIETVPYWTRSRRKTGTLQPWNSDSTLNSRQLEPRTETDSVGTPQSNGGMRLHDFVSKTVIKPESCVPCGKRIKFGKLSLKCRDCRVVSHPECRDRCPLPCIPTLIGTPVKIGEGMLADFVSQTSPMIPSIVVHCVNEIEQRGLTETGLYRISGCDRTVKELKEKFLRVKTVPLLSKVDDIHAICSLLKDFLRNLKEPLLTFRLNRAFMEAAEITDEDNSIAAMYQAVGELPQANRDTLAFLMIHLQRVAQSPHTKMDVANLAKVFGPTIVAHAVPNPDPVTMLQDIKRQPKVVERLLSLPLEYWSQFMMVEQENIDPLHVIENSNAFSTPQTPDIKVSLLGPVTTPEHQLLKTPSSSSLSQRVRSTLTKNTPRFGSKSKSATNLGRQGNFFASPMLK

Genome polyprotein = Genome polyprotein (dengue virus type 2, UniProt P29990); test: Dengue-2 NS5 methyltransferase inhibitors, primary screen, biochemical, confirmation dose response (AID 588689); type: functional
Chain of Genome polyprotein (P29990 2492-3391 limits assumed): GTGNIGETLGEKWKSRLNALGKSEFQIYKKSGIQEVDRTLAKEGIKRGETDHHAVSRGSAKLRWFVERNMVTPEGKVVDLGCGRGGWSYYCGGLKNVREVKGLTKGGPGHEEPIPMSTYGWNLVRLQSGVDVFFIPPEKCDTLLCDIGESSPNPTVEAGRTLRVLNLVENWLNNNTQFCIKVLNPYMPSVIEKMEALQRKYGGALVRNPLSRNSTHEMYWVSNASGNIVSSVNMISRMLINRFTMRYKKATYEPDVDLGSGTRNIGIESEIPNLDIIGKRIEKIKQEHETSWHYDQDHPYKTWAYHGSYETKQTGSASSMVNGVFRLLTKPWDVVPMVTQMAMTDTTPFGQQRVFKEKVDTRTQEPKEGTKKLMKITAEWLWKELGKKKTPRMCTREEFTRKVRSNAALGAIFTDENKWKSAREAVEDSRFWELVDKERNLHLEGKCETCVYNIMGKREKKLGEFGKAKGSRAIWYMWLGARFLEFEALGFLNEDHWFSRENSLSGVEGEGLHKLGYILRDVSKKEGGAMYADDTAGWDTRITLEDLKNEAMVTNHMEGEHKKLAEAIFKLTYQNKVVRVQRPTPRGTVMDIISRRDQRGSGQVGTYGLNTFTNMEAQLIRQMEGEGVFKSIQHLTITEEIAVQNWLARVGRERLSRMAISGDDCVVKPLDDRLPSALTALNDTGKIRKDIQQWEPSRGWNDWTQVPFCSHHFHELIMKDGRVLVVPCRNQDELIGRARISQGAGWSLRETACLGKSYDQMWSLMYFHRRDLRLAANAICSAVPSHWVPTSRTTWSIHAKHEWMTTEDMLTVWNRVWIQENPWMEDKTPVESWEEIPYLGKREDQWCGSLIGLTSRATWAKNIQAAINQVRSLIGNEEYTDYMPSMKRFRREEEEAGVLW

[8] = inhibitors of intracellular T. cruzi replication, confirmation, NIH3T3 host cells, beta-gal luminescence (AID 2044); type: functional, cell-based;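 note: intracellular parasites grown in NIH/3T3 mouse fibroblasts as host cells; luminescent beta-galactosidase reporter signal from transgenic T. cruzi replicating inside host cells; inhibitors lower the luminescence signal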
[9] = cytotoxicity toward NIH3T3 fibroblasts, dose response, counter-screen, cell-based, ATP luminescence, mouse fibroblasts (AID 2010); type: functional;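 note: cells exposed to compound for about 90 hours before reading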
[10] = target: T5, Mannose-6-phosphate isomerase (Homo sapiens, UniProt P34949); test: human PMI inhibitors, high substrate, primary screen, biochemical, fluorescence intensity, high mannose 6-phosphate (AID 1220)
T5 sequence (P34949 whole entry): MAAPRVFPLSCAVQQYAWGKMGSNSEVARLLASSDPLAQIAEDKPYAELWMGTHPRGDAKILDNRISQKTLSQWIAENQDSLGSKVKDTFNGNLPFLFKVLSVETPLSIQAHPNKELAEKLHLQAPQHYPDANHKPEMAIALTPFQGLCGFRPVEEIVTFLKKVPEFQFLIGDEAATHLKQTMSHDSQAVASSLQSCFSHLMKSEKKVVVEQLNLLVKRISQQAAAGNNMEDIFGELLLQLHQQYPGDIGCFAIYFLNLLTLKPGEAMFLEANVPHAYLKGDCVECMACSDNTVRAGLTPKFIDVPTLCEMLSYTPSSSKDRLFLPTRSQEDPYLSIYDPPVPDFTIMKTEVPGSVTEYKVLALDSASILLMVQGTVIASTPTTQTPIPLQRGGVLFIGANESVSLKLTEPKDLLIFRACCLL

[11] = target: Eukaryotic translation initiation factor 4E (Mus musculus, UniProt P63073); test: eIF4E–eIF4G protein interaction inhibitors, dose response, biochemical, TR-FRET (AID 855); type: functional;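 note: potency for disrupting eIF4E binding to eIF4GI seen as loss of FRET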
Chain of Eukaryotic translation initiation factor 4E (P63073 whole entry): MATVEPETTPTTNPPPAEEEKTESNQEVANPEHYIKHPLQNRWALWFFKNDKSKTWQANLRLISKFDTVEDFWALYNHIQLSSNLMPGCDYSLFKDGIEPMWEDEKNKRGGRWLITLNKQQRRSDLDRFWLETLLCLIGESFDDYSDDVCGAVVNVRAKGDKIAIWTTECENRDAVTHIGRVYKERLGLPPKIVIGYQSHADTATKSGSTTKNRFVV

[12] = inhibitors of SNCA 5'UTR-driven reporter translation, confirmation, H4 neuroglioma cells, luminescence (AID 1988); type: functional, cell-based
[13] = inhibitors of firefly luciferase expression or activity, dose response, H4 neuroglioma cells, luminescence (AID 1990); type: functional, cell-based
[14] = Luminescence Cell-Based Dose Response HTS to Identify Inhibitors of 5'UTR Stem-Loop Driven Prion Protein mRNA Translation in H4 Neuroglioblastoma Cells. [Related pubchem assays: 1827 (Project Summary), 1813 (Primary HTS)]; type: functional
[15] = target: T6, DNA repair protein RAD52 homolog (Homo sapiens, UniProt P43351); type: functional, biochemical
T6 sequence (P43351 whole entry): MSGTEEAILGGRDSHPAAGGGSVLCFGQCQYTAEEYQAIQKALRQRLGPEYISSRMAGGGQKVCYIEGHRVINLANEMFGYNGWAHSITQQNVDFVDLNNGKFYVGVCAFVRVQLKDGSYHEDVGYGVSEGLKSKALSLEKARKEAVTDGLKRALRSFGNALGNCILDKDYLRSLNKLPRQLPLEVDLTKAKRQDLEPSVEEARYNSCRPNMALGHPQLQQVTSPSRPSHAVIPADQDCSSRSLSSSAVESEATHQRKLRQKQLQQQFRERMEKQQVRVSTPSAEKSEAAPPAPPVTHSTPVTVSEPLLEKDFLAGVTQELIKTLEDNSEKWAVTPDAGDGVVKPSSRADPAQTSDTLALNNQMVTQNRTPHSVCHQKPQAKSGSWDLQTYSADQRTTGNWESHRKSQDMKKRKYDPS

INS1 = test: beta cell apoptosis inhibitors, cytokine rescue, dose response, luminescence, retest (AID 449756); type: functional, cell-based; conditions: Rattus norvegicus;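 note: cell death triggered by IL-1 beta plus TNF-alpha plus IFN-gamma mixture; protective hits raise ATP signal compared with cytokine alone wells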
[16] = A Cell Based Secondary Assay To Explore Cytotoxicity of Compounds that Sensitize Mycobacterium Tuberculosis to Beta-Lactam Antibiotics.; type: functional

Chain of Glucose-6-phosphate 1-dehydrogenase (P11413 whole entry): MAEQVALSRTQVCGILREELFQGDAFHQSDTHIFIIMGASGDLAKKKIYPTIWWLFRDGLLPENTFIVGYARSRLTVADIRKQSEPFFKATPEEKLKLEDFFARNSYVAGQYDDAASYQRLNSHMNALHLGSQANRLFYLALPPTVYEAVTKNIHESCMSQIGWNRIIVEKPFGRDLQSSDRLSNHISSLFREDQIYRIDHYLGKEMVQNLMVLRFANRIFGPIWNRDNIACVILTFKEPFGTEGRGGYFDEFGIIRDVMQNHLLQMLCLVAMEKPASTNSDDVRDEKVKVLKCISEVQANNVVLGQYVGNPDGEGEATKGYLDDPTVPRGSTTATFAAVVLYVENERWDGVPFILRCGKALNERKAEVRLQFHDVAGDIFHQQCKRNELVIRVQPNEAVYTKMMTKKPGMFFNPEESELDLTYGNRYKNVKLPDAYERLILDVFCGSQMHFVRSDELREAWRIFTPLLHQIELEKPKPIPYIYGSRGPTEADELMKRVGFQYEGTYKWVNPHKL

CCc1c(C#N)c(S)nc(C)c1C(=O)Nc1ccccc1
IC50 [1]: > 80 µM (inactive)

O=C1C2CC=C(Cl)CC2C(=O)N1c1nnc[nH]1 (centres undefined)
IC50 [2]: > 100 µM (inactive) | IC50 [3]: > 100 µM (not active)

O=C1c2ccccc2C(=O)C1c1nc2ccccc2[nH]1
IC50 [2]: > 100 µM (inactive) | IC50 [3]: > 100 µM (not active)

Cc1cc(/C=C2\Cc3ccccc3C2=O)c(C)n1-c1ccccc1
AC50 (HEK293): 1.87 µM (active) | EC50 [4]: < 0.16 µM (active)

COc1c(S(=O)(=O)Nc2cccnc2)ccc(Cl)c1Cl
IC50 [2]: > 100 µM (inactive)

Cc1ccc(-c2ccccc2NC(=O)C[S+]([O-])CC(=O)Nc2ccc(C)c(Cl)c2)o1 (centres undefined)
EC50 [5]: 41.5 µM (inactive) | EC50 [6]: 34.1 µM (inactive)

COC(=O)CCNc1ccc2c(c1)OCCO2
AC50 (HEK293): 1.9 µM (active) | IC50 [7]: 251 µM (active) | EC50 [4]: 1.73 µM (active)

COC(=O)c1nn2c(C(F)(F)F)cc(-c3ccc(Br)o3)nc2c1Br
EC50 [5]: 30.5 µM (inactive) | EC50 [6]: > 99 µM (inactive)

CC(C)(C)c1ccc(S(=O)(=O)Nc2cnc3ccccc3c2)cc1
IC50 [2]: > 100 µM (inactive) | IC50 [3]: > 100 µM (not active)

COc1ccc(NS(=O)(=O)c2ccc(OC)c(OC)c2)cn1
IC50 [2]: > 100 µM (inactive) | IC50 [3]: > 100 µM (not active)

CC(=O)CSc1nc2cc3c(cc2cc1C#N)OCCO3
EC50 [5]: 29.5 µM (inactive) | EC50 [6]: > 99 µM (inactive)

O=C(CSc1nc2cc(Cl)ccc2[nH]1)NC1CCCc2ccccc21 (centres undefined)
IC50 [1]: > 80 µM (inactive)

CSc1ccc(S(=O)(=O)NCC(=O)OCCOc2ccccc2)cc1[N+](=O)[O-]
EC50 [5]: > 99 µM (inactive) | EC50 [6]: 25.8 µM (inactive)

Fc1cccc(Cl)c1CNc1ccc(N2CCCC2)cc1
IC50 (Genome polyprotein): 35.6 µM (active) | EC50 [8]: 2.52 µM (active) | EC50 [9]: > 60 µM (not active) | IC50 [10]: 30.5 µM (active) | IC50 [11]: 50 µM (inactive) | IC50 [1]: > 80 µM (inactive)

Cn1ccnc1Sc1nc(Nc2ccccc2)nc(Nc2ccccc2)n1
IC50 [2]: > 100 µM (inactive) | IC50 [3]: > 100 µM (not active)

COc1ccccc1N1C(=O)S/C(=C\c2cc(C)n(C)c2C)C1=O
EC50 [5]: 30.6 µM (inactive) | EC50 [6]: > 99 µM (inactive)

Cc1ccccc1C(=O)N1CCN(c2ccc(NC(=O)c3ccco3)cc2Cl)CC1
AC50 (HEK293): 2.45 µM (active)

CC(C)c1ccc(-c2cc(C(=O)O)[nH]n2)cc1
IC50 [2]: > 100 µM (inactive) | IC50 [3]: > 100 µM (not active)

Cc1csc(SCC(=O)c2cc(C)n(Cc3cccs3)c2C)n1
AC50 (HEK293): 2.29 µM (active) | EC50 [12]: 6.24 µM (active) | EC50 [13]: 8.74 µM (active) | EC50 [14]: 8.09 µM (active)

Cc1cc(NC(=O)/C(C#N)=C\c2ccc(-c3ccc(SC(F)F)cc3)o2)n(-c2ccccc2)n1
EC50 [5]: 22.8 µM (inactive) | EC50 [6]: > 99 µM (inactive)

c1nc2nc[nH]c(SSc3[nH]cnc4ncnc3-4)c-2n1
IC50 [7]: 75.2 µM (active) | IC50 [1]: 30.8 µM (inactive)

O=C1Nc2cc(C(=O)NCCCN3CCCC3)ccc2S/C1=C/c1cccc(Cl)c1
AC50 [15]: 7.29 µM (active) | IC50 [1]: > 80 µM (inactive)

C=CCn1c(=O)/c(=C\c2ccccn2)s/c1=C(/C#N)C(=O)NCC1CCCO1 (centres undefined)
EC50 [5]: > 99 µM (inactive) | EC50 [6]: > 99 µM (inactive)

COc1cc(C(=O)Oc2ccccc2/C=N/NC(=O)c2ccc(C)c(Cl)c2)cc(OC)c1OC
AC50 (HEK293): 12.9 µM (active) | AC50 (INS1): 0.829 µM (active) | EC50 [8]: 1.17 µM (active) | EC50 [9]: > 60 µM (not active) | CC50 [16]: 2.84 µM (active)

COC(=O)c1ccccc1/N=C/C1=C(O)c2c(C)nn(-c3ccccn3)c2CC1
IC50 [1]: > 80 µM (inactive)

Cc1nnc(N/N=C\c2ccc(-c3cccc(C(=O)O)c3)o2)n1N
IC50 [1]: 66.8 µM (inactive)

S=C(N/N=C/c1ccc2ncccc2c1)Nc1cccnc1
AC50 (HEK293): 1.59 µM (active)

COc1ccc(OC)c(NS(=O)(=O)c2cnc3ccccc3c2)c1
IC50 [2]: > 10 µM (inactive) | IC50 [3]: > 10 µM (inconclusive)
